# Source: patent US9185914B2, “Substituted 5-(cyclohex-2-en-1-yl)-penta-2,4-dienes and 5-(cyclohex-2-en-1-yl)-pent-2-en-4-ines as active agents against abiotic stress in plants” (BAYER INTELLECTUAL PROPERTY GMBH, priority 2011, dated 2015)
# Assays:
# Assay type in all cases: in vivo
# Settings in all cases: mean of three results
# Triticum aestivum = assay: Drought stress test, spray application to greenhouse plants (Triticum aestivum)
# Protocol: (§1) Seeds of monocotyledonous and dicotyledonous crop plants were laid out in sandy loam in wood-fiber pots, covered with soil and cultivated in a greenhouse under good growth conditions. The test plants were treated at the early leaf stage (BBCH10-BBCH13). To ensure uniform water supply before commencement of stress, the potted plants were supplied with the maximum amount of water immediately beforehand by dam irrigation and, after application, transferred into plastic inserts in order to prevent subsequent, excessively rapid drying. The compounds according to the invention, formulated in the form of wettable powders (WP), wettable granules (WG), suspension concentrates (SC) or emulsion concentrates (EC), were sprayed onto the green parts of the plants as an aqueous suspension at an equivalent water application rate of 600 l/ha with addition of 0.2% wetting agent (agrotin). Substance application is followed immediately by stress treatment of the plants (cold or drought stress). For cold stress treatment, the plants were kept under the following controlled conditions: • “day”: 12 hours with illumination at 8° C. • “night”: 12 hours without illumination at 1° C.
# (§2) Drought stress was induced by gradual drying out under the following conditions: • “day”: 14 hours with illumination at 26° C. • “night”: 10 hours without illumination at 18° C.
# (§3) The duration of the respective stress phases was guided mainly by the state of the untreated (=treated with blank formulation but without test compound), stressed control plants and thus varied from crop to crop. It was ended (by re-irrigating or transfer to a greenhouse with good growth conditions) as soon as irreversible damage was observed on the untreated, stressed control plants. In the case of dicotyledonous crops, for example oilseed rape and soybeans, the duration of the drought stress phase varied between 3 and 5 days; in the case of monocotyledonous crops, for example wheat, barley or corn, it varied between 6 and 10 days. The duration of the cold stress phase varied between 12 and 14 days.
# (§4) The end of the stress phase was followed by an approx. 5-7-day recovery phase, during which the plants were once again kept under good growth conditions in a greenhouse. In order to rule out any influence of the effects observed by any fungicidal action of the test compounds, it was additionally ensured that the tests proceeded without fungal infection and without infection pressure.
# (§5) After the recovery phase had ended, the intensities of damage were rated visually in comparison to untreated, unstressed controls of the same age (in the case of drought stress) or the same growth stage (in the case of cold stress). The intensity of damage was first recorded as a percentage (100%=plants have died, 0%=like control plants). These values were then used to calculate the efficacy of the test compounds (=percentage reduction in the intensity of damage as a result of substance application) by the following formula:
# (§6) [formula] EF: efficacy (%) DVus: damage value of the untreated, stressed control DVts: damage value of the plants treated with test compound
# (§7) The tables below list mean values in each case from three results of the same test.
# (§8) Efficacies of selected compounds of the formula (I) under drought stress: […]
# Brassica napus = assay: Drought stress test, spray application to greenhouse plants (Brassica napus)
# Protocol: as §1, §2, §3, §4, §5, §6, §7, §8
# Zea mays = assay: Drought stress test, spray application to greenhouse plants (Zea mays)
# Protocol: as §1, §2, §3, §4, §5, §6, §7, §8
Structure (SMILES),"EF (TRZAS), efficacy = percentage reduction in the intensity of damage (Triticum aestivum; dosage 250 g/ha) [%]","EF (BRSNS), efficacy = percentage reduction in the intensity of damage (Brassica napus; dosage 250 g/ha) [%]",other results
"CC1=CC(=O)CC(C)(C)C1(O)C#C/C(=C\C(=O)O)C(F)(F)F (centres unmarked) [I.1-23, (2E)-5-(1-Hydroxy-2,6,6-trimethyl-4-oxocyclohex-2-en-1-yl)-3-(trifluoromethyl)pent-2-en-4-ynoic acid]",>5,>5,"EF (ZEAMX), efficacy = percentage reduction in the intensity of damage (Zea mays; dosage 250 g/ha): >5%"
CCC(C#CC1(O)C(C)=CC(=O)CC1(C)C)=CC(=O)NC(C)C (centres unmarked) [I.2-14],,,"EF (ZEAMX), efficacy = percentage reduction in the intensity of damage (Zea mays; dosage 25 g/ha): >5%"
CCOC(=O)C=C(C#CC1(O)C(C)=CC(=O)CC1(C)C)C1CC1 (centres unmarked) [I.1-114],>5,>5,
"CCOC(=O)/C=C(\C=C\C1(O)C(C)=CC(=O)CC1(C)C)C(F)(F)F (centres unmarked) [I.1-16, Ethyl (2E,4E)-5-(1-hydroxy-2,6,6-trimethyl-4-oxocyclohex-2-en-1-yl)-3-(trifluoromethyl)penta-2,4-dienoate]",>5,>5,
CCOC(=O)C=C(C=CC1(O)C(C)=CC(=O)CC1(C)C)C(C)(C)C (centres unmarked) [I.1-92],>5,,"EF (ZEAMX), efficacy = percentage reduction in the intensity of damage (Zea mays; dosage 250 g/ha): >5%"
CCC(C=CC1(O)C(C)=CC(=O)CC1(C)C)=CC(=O)OC (centres unmarked) [I.1-144],,,"EF (TRZAS), efficacy = percentage reduction in the intensity of damage (Triticum aestivum; dosage 25 g/ha): >5%; EF (BRSNS), efficacy = percentage reduction in the intensity of damage (Brassica napus; dosage 25 g/ha): >5%"
"CCOC(=O)/C=C(\C#CC1(O)C(C)=CC(=O)CC1(C)C)C(F)(F)F (centres unmarked) [I.1-14, Ethyl (2E)-5-(1-hydroxy-2,6,6-trimethyl-4-oxocyclohex-2-en-1-yl)-3-(trifluoromethyl)pent-2-en-4-ynoate]",,,"EF (ZEAMX), efficacy = percentage reduction in the intensity of damage (Zea mays; dosage 25 g/ha): >5%"
CCOC(=O)C=C(C=CC1(O)C(C)=CC(=O)CC1(C)C)C1CC1 (centres unmarked) [I.1-116],>5,>5,
CCCCCCC(C#CC1(O)C(C)=CC(=O)CC1(C)C)=CC(=O)OCC (centres unmarked) [I.1-72],,>5,
CCOC(=O)C=C(C=CC1(O)C(C)=CC(=O)CC1(C)C)CC (centres unmarked) [I.1-10],>5,>5,"EF (ZEAMX), efficacy = percentage reduction in the intensity of damage (Zea mays; dosage 250 g/ha): >5%"
CCOC(=O)C=C(C=CC1(O)C(C)=CC(=O)CC1(C)C)C1CCCC1 (centres unmarked) [I.1-124],>5,,
CCCCC(C#CC1(O)C(C)=CC(=O)CC1(C)C)=CC(=O)OCC (centres unmarked) [I.1-60],>5,>5,
"CCC/C(C#CC1(O)C(C)=CC(=O)CC1(C)C)=C/C(=O)OCC (centres unmarked) [I.1-2, Ethyl (2Z)-3-[(1-hydroxy-2,6,6-trimethyl-4-oxocyclohex-2-en-1-yl)ethynyl]hex-2-enoate]",>5,>5,
CCOC(=O)C=C(C#CC1(O)C(C)=CC(=O)CC1(C)C)CC (centres unmarked) [I.1-8],>5,>5,
CCC(C#CC1(O)C(C)=CC(=O)CC1(C)C)=CC(=O)OC (centres unmarked) [I.1-142],>5,>5,"EF (ZEAMX), efficacy = percentage reduction in the intensity of damage (Zea mays; dosage 250 g/ha): >5%"
CC1=CC(=O)CC(C)(C)C1(O)C=CC(=CC(=O)O)C1CC1 (centres unmarked) [I.1-46],>5,>5,"EF (ZEAMX), efficacy = percentage reduction in the intensity of damage (Zea mays; dosage 250 g/ha): >5%"
CCCCCC(C=CC1(O)C(C)=CC(=O)CC1(C)C)=CC(=O)OCC (centres unmarked) [I.1-68],,>5,
"CCCC(=C/C(=O)OCC)/C=C/C1(O)C(C)=CC(=O)CC1(C)C (centres unmarked) [I.1-4, Ethyl (2Z)-3-[(E)-2-(1-hydroxy-2,6,6-trimethyl-4-oxocyclohex-2-en-1-yl)vinyl]hex-2-enoate]",>5,>5,
CCOC(=O)C=C(C#CC1(O)C(C)=CC(=O)CC1(C)C)C(C)C (centres unmarked) [I.1-84],,,"EF (ZEAMX), efficacy = percentage reduction in the intensity of damage (Zea mays; dosage 250 g/ha): >5%"
CCC(C=CC1(O)C(C)=CC(=O)CC1(C)C)=CC(=O)O (centres unmarked) [I.1-20],>5,>5,"EF (ZEAMX), efficacy = percentage reduction in the intensity of damage (Zea mays; dosage 250 g/ha): >5%"
CCC(C#CC1(O)C(C)=CC(=O)CC1(C)C)=CC(=O)NC1CC1 (centres unmarked) [I.2-18],,>5,"EF (ZEAMX), efficacy = percentage reduction in the intensity of damage (Zea mays; dosage 25 g/ha): >5%"
CCOC(=O)C=C(C=CC1(O)C(C)=CC(=O)CC1(C)C)C(C)C (centres unmarked) [I.1-86],>5,,
CCCCCCC(C=CC1(O)C(C)=CC(=O)CC1(C)C)=CC(=O)OCC (centres unmarked) [I.1-74],,>5,
CCOC(=O)C=C(C#CC1(O)C(C)=CC(=O)CC1(C)C)C1CCCC1 (centres unmarked) [I.1-122],,,"EF (TRZAS), efficacy = percentage reduction in the intensity of damage (Triticum aestivum; dosage 25 g/ha): >5%"
